In paper PMC3596469 (European journal of pharmaceutical sciences : official …, 2013):
Read-outs that look alike come from different tables or passages of the source.

Columns and labels:
LPS-challenged mice = experiment: Food intake and body weight in LPS-challenged murine model; format: in vivo, Male Swiss Webster mice; conditions: for animals' appetite, 1st day post LPS challenge: oral administration
[1] = for oral bioavailability: from AUC values; for blood levels at the lowest oral dose: oral 0.1 mg/kg, 24 h sampling
[2] = PK after i.v. injection in mice, 2-compartmental analysis; conditions: i.v. 0.01 mg/kg
[3] = tested on: LPS-induced release of inflammatory cytokines in plasma; experiment: Plasma cytokines in LPS-challenged murine model; format: in vivo, Male Swiss Webster mice
[4] = tested on: plasma epoxides and diols (biomarker of sEH action); experiment: Plasma oxylipin profile; format: in vivo, Male Swiss Webster mice
[5] = mouse, in vivo, po, 1 mg/kg; cited from earlier work
[6] = mouse, in vivo, po
Human sEH = target: T1, Human sEH (Homo sapiens, UniProt P34913); experiment: Radioactive sEH inhibition assay; format: biochemical; conditions: read-out: IC50 Human sEH (value in parentheses); [3H] t-DPPO as substrate
T1 sequence (P34913 1-555): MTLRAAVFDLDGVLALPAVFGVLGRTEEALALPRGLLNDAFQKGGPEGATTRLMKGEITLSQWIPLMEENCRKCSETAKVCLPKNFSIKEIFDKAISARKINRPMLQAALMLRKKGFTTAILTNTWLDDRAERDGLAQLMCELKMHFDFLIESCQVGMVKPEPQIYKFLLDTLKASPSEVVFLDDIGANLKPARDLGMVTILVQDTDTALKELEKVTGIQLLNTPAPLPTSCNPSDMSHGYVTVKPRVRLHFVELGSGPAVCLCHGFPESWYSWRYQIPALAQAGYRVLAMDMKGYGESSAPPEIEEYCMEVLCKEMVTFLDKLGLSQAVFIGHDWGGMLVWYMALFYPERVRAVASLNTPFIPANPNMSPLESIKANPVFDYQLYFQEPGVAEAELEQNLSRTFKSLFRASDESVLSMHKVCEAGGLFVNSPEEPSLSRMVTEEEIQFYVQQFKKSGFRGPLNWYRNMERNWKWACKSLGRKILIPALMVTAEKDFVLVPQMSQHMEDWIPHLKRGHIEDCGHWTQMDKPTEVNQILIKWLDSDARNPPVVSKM

[7] = mice, oral gavage 0.1 mg/kg, blood
[8] = mice, oral gavage 0.3 mg/kg, blood
[9] = mice, oral gavage 1.0 mg/kg, blood
[10] = mice, oral gavage 3.0 mg/kg, blood
[11] = LPS 3 mg/kg + inhibitor 3 mg/kg single dose, terminated 48 h
[12] = LPS 3 mg/kg + inhibitor 3 mg/kg, terminated 24 h
[13] = male, Swiss Webster, mouse, whole blood, po, 0.1 mg/kg
[14] = male, Swiss Webster, mouse, whole blood, po, 0.3 mg/kg
[15] = male, Swiss Webster, mouse, whole blood, po, 1 mg/kg
[16] = male, Swiss Webster, mouse, whole blood, po, 3 mg/kg

O=C(NC12CC3CC(CC(C3)C1)C2)N[C@H]1CC[C@H](Oc2ccc(C(=O)O)cc2)CC1 [t-AUCB, trans-4-[4-(3-adamantan-1-yl-ureido)-cyclohexyloxy]-benzoic acid, reference compound]
animals' appetite, 1st day post LPS challenge (LPS-challenged mice; LPS-challenged mice): did not improve

O=C(Nc1ccc(OC(F)(F)F)cc1)NC1CCN(C(=O)C2CC2)CC1 [TCPU, 1-(4-trifluoro-methoxy-phenyl)-3-(1-cyclopropanecarboxylpiperidin-4-yl)urea]
AUCt ([1]; mice, oral gavage 0.1 mg/kg): 2.2 ± 1.1 µM·h | MRT ([1]; mice, oral gavage 0.1 mg/kg): 18.9 ± 6.6 h | Tmax ([1]; mice, oral gavage 0.1 mg/kg): 5.3 ± 1.2 h | Cmax [1, 7]: 270 ± 120 nM | AUCt ([1]; mice, oral gavage 0.3 mg/kg): 16.6 ± 8.8 µM·h | MRT ([1]; mice, oral gavage 0.3 mg/kg): 16.9 ± 5.4 h | Cmax [1, 8]: 1680 nM | AUCt ([1]; mice, oral gavage 1.0 mg/kg): 43.8 ± 5.1 µM·h | MRT ([1]; mice, oral gavage 1.0 mg/kg): 24.0 ± 1.8 h | Tmax ([1]; mice, oral gavage 1.0 mg/kg): 3.2 ± 2.2 h | Cmax [1, 9]: 2560 nM | AUCt ([1]; mice, oral gavage 3.0 mg/kg): 94.3 ± 8.0 µM·h | MRT ([1]; mice, oral gavage 3.0 mg/kg): 32.1 ± 5.6 h | Tmax ([1]; mice, oral gavage 3.0 mg/kg): 3.9 ± 2.5 h | Cmax [1, 10]: 5160 nM

CCC(=O)N1CCC(NC(=O)Nc2ccc(OC(F)(F)F)cc2)CC1 [TPPU, 1-(4-trifluoro-methoxy-phenyl)-3-(1-propionylpiperidin-4-yl)urea]
animal's appetite (pilot study) (LPS-challenged mice; 1 mg/kg): no favorable effect was observed | animal's appetite at 2 days post treatment (pilot study) (LPS-challenged mice; oral 3 mg·kg^-1): improved | animals' appetite, 1st day post LPS challenge (LPS-challenged mice; LPS-challenged mice): did not improve | animals' appetite, 2nd day post LPS challenge (LPS-challenged mice; oral, TPPU 3 mg/kg once, t-AUCB 3 mg/kg twice, LPS-challenged mice): significantly improved | AUCt [2]: 3.5 ± 0.4 µM·h | Cl (clearance) [2]: 20 ± 1.7 mL/min/kg | T1/2β (half life of elimination phase) [2]: >24 h | Vdss (volume distribution at steady state) [2]: 4.8 ± 1.8 L/kg | IL-6 in plasma [3, 11]: 9 ± 0.5 pg/mL | IL-10 in plasma [3, 11]: 7.7 ± 0.5 pg/mL | INF-γ in plasma [3, 11]: 2.0 ± 0.5 pg/mL | MCP-1 in plasma [3, 11]: 260 ± 50 pg/mL | TNF-α in plasma [3, 11]: 11 ± 1 pg/mL | IL-6 in plasma [3, 12]: 118 ± 65 pg/mL | IL-10 in plasma [3, 12]: 8.7 ± 0.4 pg/mL | INF-γ in plasma [3, 12]: 9.7 ± 3.0 pg/mL | MCP-1 in plasma [3, 12]: 1970 ± 900 pg/mL | TNF-α in plasma [3, 12]: 28 ± 14 pg/mL | reduction of cytokine or chemokine release one day after treatment ([3]; LPS-challenged mice): Neither the administration of TPPU nor the t-AUCB treatment demonstrated a beneficial effect | plasma levels of both EETs and EpOMEs ([4]; 1- and 2-day post treatment, LPS-challenged mice): significantly increased | plasma levels of both DHOMEs and DHETs ([4]; 2-day post LPS treatment): significantly decreased | oral bioavailability ([1]; mice, oral 0.1 mg/kg vs i.v. 0.01 mg/kg): 43 ± 25% | blood levels at the lowest oral dose ([1]; mice): above their in vitro IC50 values throughout the sampling time | oral bioavailability ([1]; mice, oral 0.3 mg/kg vs i.v. 0.01 mg/kg): 36 ± 5% | oral bioavailability ([1]; mice, oral 1.0 mg/kg vs i.v. 0.01 mg/kg): 31 ± 2% | oral bioavailability ([1]; mice, oral 3.0 mg/kg vs i.v. 0.01 mg/kg): 18 ± 3% | MRT ([1]; mice, oral gavage 0.1 mg/kg): 56.9 ± 5.4 h | Tmax ([1]; mice, oral gavage 0.1 mg/kg): 2 ± 0 h | Cmax [1, 7]: 445 ± 200 nM | MRT ([1]; mice, oral gavage 0.3 mg/kg): 69.5 ± 2.2 h | Tmax ([1]; mice, oral gavage 0.3 mg/kg): 2 ± 0 h | Cmax [1, 8]: 1560 nM | MRT ([1]; mice, oral gavage 1.0 mg/kg): 26.8 ± 2.2 h | Tmax ([1]; mice, oral gavage 1.0 mg/kg): 2.7 ± 1.2 h | Cmax [1, 9]: 5370 nM | MRT ([1]; mice, oral gavage 3.0 mg/kg): 24.0 ± 0.2 h | Tmax ([1]; mice, oral gavage 3.0 mg/kg): 3.7 ± 1.8 h | Cmax [1, 10]: 7100 nM

O=C(Nc1ccc(OC(F)(F)F)cc1)N[C@H]1CC[C@H](Oc2ccc(C(=O)O)cc2)CC1 [t-TUCB, trans-4-[4-[3-(4-Trifluoromethoxy-phenyl)-Ureido]-cyclohexyloxy]-Benzoic acid]
Cmax [1, 13]: < 0.4 nM | AUC(0-t) [1, 14]: 0.4 µM·h | Cmax [1, 14]: 45 nM | MRT [1, 14]: 12.6 h | Tmax [1, 14]: 6 h | AUC(0-t) [1, 15]: 4.5 µM·h | Cmax [1, 15]: 410 nM | MRT [1, 15]: 12.6 h | Tmax [1, 15]: 5.9 h | AUC(0-t) [1, 16]: 16.1 µM·h | Cmax [1, 16]: 2120 nM | MRT [1, 16]: 8 h | Tmax [1, 16]: 2.6 h | blood levels at the lowest oral dose ([1]; mice): under the respective detection limit

CC(=O)N1CCC(NC(=O)NC23CC4CC(CC(C4)C2)C3)CC1 [APAU, 1-(1-acetypiperidin-4-yl)-3-adamantanylurea]
AUCt [5]: 1.4±0.3 0.35±0.15 uM•h | MRT [5]: 20±4.2 22.2±4.3 h

CS(=O)(=O)N1CCC(NC(=O)Nc2ccc(OC(F)(F)F)cc2)CC1 [TUPS, 1-(1-methanesulfonyl-piperidin-4-yl)-3-(4-trifluoromethoxy-phenyl)-urea]
Cmax [1, 13]: < 0.4 nM | AUC(0-t) [1, 14]: 5.3 µM·h | MRT [1, 14]: 21.5 h | AUC(0-t) [1, 15]: 24.2 µM·h | Cmax [1, 15]: 1650 nM | MRT [1, 15]: 17.4 h | AUC(0-t) [1, 16]: 48.5 µM·h | Cmax [1, 16]: 2860 nM | MRT [1, 16]: 22.7 h | blood levels at the lowest oral dose ([1]; mice): under the respective detection limit

1-chlorophenyl-3-(1-propionylpiperidin-4-yl)urea [CPPU]
AUCt ([6]; 0.1 mg/kg): 2.3 ± 0.4 µM·h | MRT ([6]; 0.1 mg/kg): 13.1 ± 13.5 h | AUCt ([6]; 0.3 mg/kg): 6.1 ± 1.7 µM·h | MRT ([6]; 0.3 mg/kg): 16.4 ± 6.3 h | AUCt ([6]; 1 mg/kg): 31.7 ± 18.4 µM·h | MRT ([6]; 1 mg/kg): 17.2 ± 7.3 h | AUCt ([6]; 3 mg/kg): 140 ± 93 µM·h | MRT ([6]; 3 mg/kg): 17.1 ± 1.3 h | IC50 (Human sEH): 280 nM
